T/C data for 17 compounds are collected here from PubChem BioAssay AID330 (DTP/NCI, 2004).

The test deals with P388 leukemia ip, CD2F1 mice, survival T/C. The test is described as follows: NCI In Vivo Anticancer Drug Screen. Data for tumor model P388 Leukemia (intraperitoneal) in CD2F1 (CDF1) mice. Particulars: endpoint: median survival time, higher = longer survival. The method, boiled down:
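Mice carrying the transplanted tumor received test compound or vehicle. Survival was recorded in each group, and the value is the treated-group measurement divided by that of the vehicle-treated control group.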

[1] abbreviates: dose: 100.0 mg/kg/injection, schedule: Q01DX009 (ip), vehicle: saline.
[2] abbreviates: dose: 200.0 mg/kg/injection, schedule: Q01DX009 (ip), vehicle: saline.
The mark [3] stands for this setting: dose: 400.0 mg/kg/injection, schedule: Q01DX009 (ip), vehicle: saline.
[4] abbreviates: dose: 100.0 mg/kg/injection, schedule: Q04DX003 (ip), vehicle: saline with Tween-80.
[5] abbreviates: dose: 200.0 mg/kg/injection, schedule: Q04DX003 (ip), vehicle: saline with Tween-80.
[6] abbreviates: dose: 400.0 mg/kg/injection, schedule: Q04DX003 (ip), vehicle: saline with Tween-80.
Setting [7] is: dose: 50.0 mg/kg/injection, schedule: Q01DX009 (ip), vehicle: saline with Tween-80.
The mark [8] stands for this setting: dose: 200.0 mg/kg/injection, schedule: Q01DX009 (ip), vehicle: saline with Tween-80.
Where [9] appears, read: dose: 60.0 mg/kg/injection, schedule: Q01DX005 (ip), vehicle: saline with Tween-80.
Setting [10] is: dose: 120.0 mg/kg/injection, schedule: Q01DX005 (ip), vehicle: saline with Tween-80.

Values joined by “and” are separate entries in the source; they are usually repeats but may differ in a detail not shown here. Equal entries are not always repeated. Toxic doses and inconclusive results are not listed.

With `COc1cc(-c2ccc(Nc3ccccc3C(=O)O)c(OC)c2)ccc1Nc1ccccc1C(=O)O`, the T/C runs as follows: (dose: 50.0 mg/kg/injection, schedule: Q01DX009 (ip), vehicle: saline) 105 % of control; under setting [1], 100 % of control and 104 % of control and 109 % of control; under setting [2], 110 % of control; under setting [3], 117 % of control and 124 % of control and 86 % of control.
As for `Clc1ccc(C=NCCN=Cc2ccc(Cl)c(Cl)c2)cc1Cl`, the T/C is, setting by setting: under setting [4], 90 % of control; under setting [5], 95 % of control; under setting [6], 90 % of control.
Turning to `CCCCCCCCSc1nc(Nc2cc(C(C)(C)C)c(O)c(C(C)(C)C)c2)nc(SCCCCCCCC)n1`, the T/C is 105 % of control (dose: 12.5 mg/kg/injection, schedule: Q01DX009 (ip), vehicle: saline with Tween-80); 104 % of control (dose: 25.0 mg/kg/injection, schedule: Q01DX009 (ip), vehicle: saline with Tween-80); 99 % of control and 92 % of control under setting [7]; 100 % of control under setting [8].
As to `CCCn1c(Cl)c(/C=N\Nc2ccc([N+](=O)[O-])cc2[N+](=O)[O-])c2ccccc21`, the T/C by setting is: under setting [4], 92 % of control; under setting [5], 97 % of control; under setting [6], 92 % of control.
For the compound `N#C/C(=C1/OC(=N)C(c2c(Cl)cccc2Cl)C1=O)c1c(Cl)cccc1Cl` (configuration not stated), the T/C was 100 % of control (dose: 50.0 mg/kg/injection, schedule: Q01DX005 (ip), vehicle: saline with Tween-80) and 101 % of control (dose: 100.0 mg/kg/injection, schedule: Q01DX005 (ip), vehicle: saline with Tween-80).
On to `Cc1cc[n+]2cc(-c3ccc(/C=N/N=C(N)N)cc3)n(C)c2c1`, for which the T/C runs as follows: (dose: 1.56 mg/kg/injection, schedule: Q01DX005 (ip), vehicle: Klucel (hydroxypropylcellulose) (HPC)) 100 % of control; (dose: 3.12 mg/kg/injection, schedule: Q01DX005 (ip), vehicle: Klucel (hydroxypropylcellulose) (HPC)) 103 % of control; (dose: 6.25 mg/kg/injection, schedule: Q01DX005 (ip), vehicle: Klucel (hydroxypropylcellulose) (HPC)) 102 % of control and 107 % of control.
On to `CCOC(=O)CCc1ccc2c(c1)OCO2`, for which the T/C was 100 % of control under setting [1]; 91 % of control under setting [4]; 104 % of control under setting [2]; 100 % of control under setting [5]; 113 % of control under setting [3]; 91 % of control under setting [6].
For the compound `CC12C(=Nc3ccccc31)CCc1ccccc12` (configuration not stated), the T/C is 99 % of control (dose: 50.0 mg/kg/injection, schedule: Q01DX005 (ip), vehicle: saline + Tween-80 + alcohol); 100 % of control (dose: 100.0 mg/kg/injection, schedule: Q01DX005 (ip), vehicle: saline + Tween-80 + alcohol); 100 % of control (dose: 200.0 mg/kg/injection, schedule: Q01DX005 (ip), vehicle: saline + Tween-80 + alcohol).
Regarding `COc1ccc(NC(=S)NC(=O)c2ccccc2)cc1OC`, the T/C was 99 % of control under setting [7]; 100 % of control (dose: 100.0 mg/kg/injection, schedule: Q01DX009 (ip), vehicle: saline with Tween-80); 107 % of control under setting [8].
As for `CCC(=O)N(C)C(C)C(=O)OC1CC(=O)N(C)c2cc(cc(OC)c2Cl)CC(CO)=C/C=C/C(OC)C2(O)CC(OC(=O)N2)C(C)C2OC12C` (configuration not stated), the T/C was 124 % of control (dose: 50.0 micrograms/kg/injection, schedule: Q01DX009 (ip), vehicle: saline + alcohol); 158 % of control (dose: 100.0 micrograms/kg/injection, schedule: Q01DX009 (ip), vehicle: saline + alcohol); 150 % of control and 158 % of control (dose: 400.0 micrograms/kg/injection, schedule: Q01DX009 (ip), vehicle: saline + alcohol); 155 % of control (dose: 800.0 micrograms/kg/injection, schedule: Q01DX009 (ip), vehicle: saline + alcohol).
With `CCn1c(=O)c2[nH]c(SC)nc2n(CC)c1=O`, the T/C (dose: 16.0 mg/kg/injection, schedule: Q01DX009 (ip), vehicle: Klucel (hydroxypropylcellulose) (HPC)) was 105 % of control; the T/C (dose: 32.0 mg/kg/injection, schedule: Q01DX009 (ip), vehicle: Klucel (hydroxypropylcellulose) (HPC)) was 107 % of control; the T/C (dose: 50.0 mg/kg/injection, schedule: Q01DX009 (ip), vehicle: Klucel (hydroxypropylcellulose) (HPC)) is 116 % of control; the T/C (dose: 64.0 mg/kg/injection, schedule: Q01DX009 (ip), vehicle: Klucel (hydroxypropylcellulose) (HPC)) was 104 % of control; the T/C (dose: 100.0 mg/kg/injection, schedule: Q01DX009 (ip), vehicle: Klucel (hydroxypropylcellulose) (HPC)) is 111 % of control; the T/C (dose: 200.0 mg/kg/injection, schedule: Q01DX009 (ip), vehicle: Klucel (hydroxypropylcellulose) (HPC)) was 100 % of control.
Consider `CCCCCCC1NC(CCCCC)N2C(CCCCC)N12` (configuration not stated), for which the T/C is, setting by setting: (dose: 50.0 mg/kg/injection, schedule: Q01DX001 (ip), vehicle: Klucel (hydroxypropylcellulose) (HPC)) 101 % of control; (dose: 100.0 mg/kg/injection, schedule: Q01DX001 (ip), vehicle: Klucel (hydroxypropylcellulose) (HPC)) 103 % of control; (dose: 200.0 mg/kg/injection, schedule: Q01DX001 (ip), vehicle: Klucel (hydroxypropylcellulose) (HPC)) 95 % of control.
For `CCCCCCCCCCCCCCCC[N+](C)(C)CCSCC(N)=O`, the T/C is, setting by setting: (dose: 12.5 mg/kg/injection, schedule: Q04DX003 (ip), vehicle: saline) 109 % of control; (dose: 50.0 mg/kg/injection, schedule: Q04DX003 (ip), vehicle: saline) 111 % of control and 121 % of control.
Consider `CC(=O)Nc1nnc(-c2coc3ccccc3c2=O)s1`, for which the T/C is, setting by setting: under setting [9], 91 % of control; under setting [10], 91 % of control.
`C[N+](C)(C)CCC(=O)c1ccc(Cl)cc1`: the T/C is, setting by setting: (dose: 3.13 mg/kg/injection, schedule: Q01DX009 (ip), vehicle: saline) 109 % of control; (dose: 6.25 mg/kg/injection, schedule: Q01DX009 (ip), vehicle: saline) 96 % of control; (dose: 12.5 mg/kg/injection, schedule: Q01DX009 (ip), vehicle: saline) 103 % of control.
Take `COc1cc(CC(OC)OC)no1`: the T/C is 102 % of control under setting [9]; 103 % of control under setting [10]; 102 % of control (dose: 240.0 mg/kg/injection, schedule: Q01DX005 (ip), vehicle: saline with Tween-80).
For the compound `Nc1nc2c(ncn2C2OC(CO)C(O)C2O)c(=O)[nH]1` (configuration not stated), the T/C is 103 % of control and 106 % of control (dose: 25.0 mg/kg/injection, schedule: Q04DX003 (ip), vehicle: saline with Tween-80); 120 % of control (dose: 50.0 mg/kg/injection, schedule: Q04DX003 (ip), vehicle: saline with Tween-80); 110 % of control (dose: 100.0 mg/kg/injection, schedule: Q01DX009 (ip), vehicle: suspension in saline); 90 % of control under setting [4]; 111 % of control under setting [8]; 92 % of control (dose: 200.0 mg/kg/injection, schedule: Q01DX009 (ip), vehicle: suspension in saline). Also, the T/C reads like this: (dose: 300.0 mg/kg/injection, schedule: Q01DX009 (ip), vehicle: saline with Tween-80) 106 % of control; (dose: 400.0 mg/kg/injection, schedule: Q01DX009 (ip), vehicle: saline with Tween-80) 102 % of control; (dose: 400.0 mg/kg/injection, schedule: Q01DX009 (ip), vehicle: suspension in saline) 119 % of control and 97 % of control; under setting [6], 100 % of control; (dose: 600.0 mg/kg/injection, schedule: Q01DX009 (ip), vehicle: saline with Tween-80) 90 % of control; (dose: 800.0 mg/kg/injection, schedule: Q01DX009 (ip), vehicle: saline with Tween-80) 114 % of control. Besides, the T/C is, setting by setting: (dose: 800.0 mg/kg/injection, schedule: Q01DX009 (ip), vehicle: suspension in saline) 113 % of control and 94 % of control; (dose: 1200.0 mg/kg/injection, schedule: Q01DX009 (ip), vehicle: saline with Tween-80) 95 % of control; (dose: 1600.0 mg/kg/injection, schedule: Q01DX009 (ip), vehicle: saline with Tween-80) 99 % of control; (dose: 1600.0 mg/kg/injection, schedule: Q01DX009 (ip), vehicle: suspension in saline) 112 % of control and 95 % of control; (dose: 2400.0 mg/kg/injection, schedule: Q01DX009 (ip), vehicle: saline with Tween-80) 100 % of control; (dose: 2400.0 mg/kg/injection, schedule: Q01DX009 (ip), vehicle: suspension in saline) 117 % of control.
